Assay results from patent publication US6461997B1, “Triazole sulfones having herbicidal activity” (Monsanto Technology LLC, priority 1999, dated 2002).

Columns and labels:
[1] = system: LAMPU (purple deadnettle); assay: Pre-emergence herbicidal activity, cool season; format: in vivo, Lamium purpureum; conditions: lowest tested rate with 80% or greater inhibition; rates 300, 100, 30, 10 g/ha; about 14 days
Experimental: (§1) Tables 5 to 8 summarize results of tests conducted as described below to determine the pre-emergence herbicidal activity, in the form of a GR80 value, of illustrative compounds of this invention. […] Compounds of the invention were typically applied at rates of 300, 100, 30, and 10 g/ha. Where herbicidal activity was evident but 80% inhibition was not achieved at the highest rate tested, an asterisk (*) is shown in the following tables.
(§2) The pre-emergence tests were conducted by the following procedure. Topsoil was sieved to pass through a 1.27 cm screen. Fertilizer was added to the topsoil and the mixture was then sterilized by heating. The topsoil mixture was placed in a pot and compacted to a depth of 1.0 to 1.25 cm from the top of the pot. Seeds of each of several monocotyledonous and dicotyledonous annual plant species were placed on top of the soil. Additional soil was subsequently placed over the seeds to level-fill the pot. A known amount of each test compound dissolved or suspended in an appropriate organic solvent was diluted with a 50:50 mix of acetone and water and applied to the surface of the soil. After treatment the plants were placed in a greenhouse where they received 0.64 cm of overhead irrigation. All subsequent watering consisted of a light overhead mist and/or subirrigation as needed for germination and growth. Tables 5 and 6 below relate to warm season plant species which were placed after pre-emergence treatment in a greenhouse with a 30/21° C. day/night temperature regime. Tables 7 and 8 below relates to cool season plant species placed after pre-emergence treatment in a greenhouse or growth chamber with an 18/13° C. day/night temperature regime.
(§3) Approximately 14 days after planting and treating, the plants were observed and herbicidal efficacy recorded as percent inhibition by comparison with untreated plants.
(§4) The plant species usually regarded as weeds which were utilized in the tests are identified in the tables below according to the following legend, in which “d” indicates a dicotyledonous species and “m” a monocotyledonous species. All monocotyledonous species included in the tests herein are grasses.

POROL (common purslane) = assay: Pre-emergence herbicidal activity, warm season; format: in vivo, Portulaca oleracea; conditions: GR80 = lowest tested rate (300, 100, 30, 10 g/ha) with 80% or greater inhibition; approx. 14 days after treating; 30/21° C.
Experimental: as §1, §2, §3, §4

SETVI (green foxtail) = assay: Pre-emergence herbicidal activity, cool season; format: in vivo, Setaria viridis; conditions: GR80 = lowest tested rate (300, 100, 30, 10 g/ha) with 80% or greater inhibition; approx. 14 days after treating; 18/13° C.
Experimental: as §1, §2, §3, §4

SINAR (wild mustard) = assay: Pre-emergence herbicidal activity, cool season; format: in vivo, Sinapis arvensis; conditions: lowest tested rate with 80% or greater inhibition; rates 300, 100, 30, 10 g/ha; about 14 days
Experimental: as §1, §2, §3, §4

[2] = system: GALAP (catchweed bedstraw); assay: Pre-emergence herbicidal activity, cool season; format: in vivo, Galium aparine; conditions: lowest tested rate with 80% or greater inhibition; rates 300, 100, 30, 10 g/ha; about 14 days
Experimental: as §1, §2, §3, §4

STEME (common chickweed) = assay: Pre-emergence herbicidal activity, cool season; format: in vivo, Stellaria media; conditions: lowest tested rate with 80% or greater inhibition; rates 300, 100, 30, 10 g/ha; about 14 days
Experimental: as §1, §2, §3, §4

[3] = system: PANMI (wild proso millet); assay: Pre-emergence herbicidal activity, warm season; format: in vivo, Panicum miliaceum; conditions: GR80 = lowest tested rate (300, 100, 30, 10 g/ha) with 80% or greater inhibition; approx. 14 days after treating; 30/21° C.
Experimental: as §1, §2, §3, §4

POLCO (wild buckwheat) = assay: Pre-emergence herbicidal activity, cool season; format: in vivo, Polygonum convolvulus; conditions: lowest tested rate with 80% or greater inhibition; rates 300, 100, 30, 10 g/ha; about 14 days
Experimental: as §1, §2, §3, §4

[4] = system: AGSST (creeping bentgrass); assay: Pre-emergence herbicidal activity, cool season; format: in vivo, Agrostis stolonifera; conditions: GR80 = lowest tested rate (300, 100, 30, 10 g/ha) with 80% or greater inhibition; approx. 14 days after treating; 18/13° C.
Experimental: as §1, §2, §3, §4

SASKR (russian thistle) = assay: Pre-emergence herbicidal activity, cool season; format: in vivo, Salsola kali; conditions: lowest tested rate with 80% or greater inhibition; rates 300, 100, 30, 10 g/ha; about 14 days
Experimental: as §1, §2, §3, §4

[5] = system: VERPE (creeping speedwell); assay: Pre-emergence herbicidal activity, cool season; format: in vivo, Veronica persicaria; conditions: lowest tested rate with 80% or greater inhibition; rates 300, 100, 30, 10 g/ha; about 14 days
Experimental: as §1, §2, §3, §4

DIGSA (large crabgrass) = assay: Pre-emergence herbicidal activity, warm season; format: in vivo, Digitaria sanguinalis; conditions: GR80 = lowest tested rate (300, 100, 30, 10 g/ha) with 80% or greater inhibition; approx. 14 days after treating; 30/21° C.
Experimental: as §1, §2, §3, §4

[6] = system: SORHA (johnsongrass (seedling)); assay: Pre-emergence herbicidal activity, warm season; format: in vivo, Sorghum halepense; conditions: GR80 = lowest tested rate (300, 100, 30, 10 g/ha) with 80% or greater inhibition; approx. 14 days after treating; 30/21° C.
Experimental: as §1, §2, §3, §4

ECHCG (barnyardgrass) = assay: Pre-emergence herbicidal activity, warm season; format: in vivo, Echinochloa crus-galli; conditions: GR80 = lowest tested rate (300, 100, 30, 10 g/ha) with 80% or greater inhibition; approx. 14 days after treating; 30/21° C.
Experimental: as §1, §2, §3, §4

[7] = system: CHEAL (common lambsquarters); assay: Pre-emergence herbicidal activity, warm season; format: in vivo, Chenopodium album; conditions: GR80 = lowest tested rate (300, 100, 30, 10 g/ha) with 80% or greater inhibition; approx. 14 days after treating; 30/21° C.
Experimental: as §1, §2, §3, §4

[8] = system: BRAPP (broadleaf signalgrass); assay: Pre-emergence herbicidal activity, warm season; format: in vivo, Brachiaria platyphylla; conditions: GR80 = lowest tested rate (300, 100, 30, 10 g/ha) with 80% or greater inhibition; approx. 14 days after treating; 30/21° C.
Experimental: as §1, §2, §3, §4

SETFA (giant foxtail) = assay: Pre-emergence herbicidal activity, warm season; format: in vivo, Setaria faberi; conditions: GR80 = lowest tested rate (300, 100, 30, 10 g/ha) with 80% or greater inhibition; approx. 14 days after treating; 30/21° C.
Experimental: as §1, §2, §3, §4

ALOMY (blackgrass) = assay: Pre-emergence herbicidal activity, cool season; format: in vivo, Alopecurus myosuroides; conditions: GR80 = lowest tested rate (300, 100, 30, 10 g/ha) with 80% or greater inhibition; approx. 14 days after treating; 18/13° C.
Experimental: as §1, §2, §3, §4

SOLNI (black nightshade) = assay: Pre-emergence herbicidal activity, warm season; format: in vivo, Solanum nigrum; conditions: GR80 = lowest tested rate (300, 100, 30, 10 g/ha) with 80% or greater inhibition; approx. 14 days after treating; 30/21° C.
Experimental: as §1, §2, §3, §4

SMILES	Pre-emergence activity GR80, LAMPU [1]	Pre-emergence activity (GR80) POROL (POROL (common purslane)) [g/ha]	Pre-emergence activity (GR80) SETVI (SETVI (green foxtail)) [g/ha]	Pre-emergence activity GR80, SINAR (SINAR (wild mustard))	Pre-emergence activity GR80, GALAP [2]	Pre-emergence activity GR80, STEME (STEME (common chickweed))	Pre-emergence activity (GR80) PANMI [3] [g/ha]	Pre-emergence activity GR80, POLCO (POLCO (wild buckwheat))	Pre-emergence activity (GR80) AGSST [4] [g/ha]	Pre-emergence activity GR80, SASKR (SASKR (russian thistle))	Pre-emergence activity GR80, VERPE [5]	Pre-emergence activity (GR80) DIGSA (DIGSA (large crabgrass)) [g/ha]	Pre-emergence activity (GR80) SORHA [6] [g/ha]	Pre-emergence activity (GR80) ECHCG (ECHCG (barnyardgrass)) [g/ha]	Pre-emergence activity (GR80) CHEAL [7] [g/ha]	Pre-emergence activity (GR80) BRAPP [8] [g/ha]	Pre-emergence activity (GR80) SETFA (SETFA (giant foxtail)) [g/ha]	Pre-emergence activity (GR80) ALOMY (ALOMY (blackgrass)) [g/ha]	Pre-emergence activity (GR80) SOLNI (SOLNI (black nightshade)) [g/ha]
C=CCN(C)C(=O)n1cnc(S(=O)(=O)C(F)(F)Cl)n1 [Example 89]	100 g/ha	100	100	300 g/ha	300 g/ha	100 g/ha	300	100 g/ha	100	300 g/ha	[empty]	100							
CN(C)C(=O)n1cnc(S(=O)(=O)C(F)(F)Br)n1 [Example 37]	300 g/ha	300		[empty]	[empty]	300 g/ha	300	[empty]	100	[empty]	[empty]	300	300	300					
O=C(N1CCOCC1)n1cnc(S(=O)(=O)C(F)(F)Br)n1 [Example 36]	300 g/ha			[empty]	300 g/ha	[empty]		[empty]		[empty]	[empty]				300				
C#CCN(C)C(=O)n1cnc(S(=O)(=O)C(F)F)n1 [Example 31]	[empty]			[empty]	[empty]	[empty]		[empty]		[empty]	[empty]	300							
CCN(CC)C(=S)n1cnc(S(=O)(=O)C(F)(F)C(F)(F)Br)n1 [Example 82]	300 g/ha	30	100	300 g/ha	[empty]	300 g/ha	300	300 g/ha	300	[empty]	300 g/ha		300		300	300	300		
C=CCN(C)C(=O)n1cnc(S(=O)(=O)C(F)(F)C(F)F)n1 [Example 65]	100 g/ha		100	300 g/ha	30 g/ha	300 g/ha	300	100 g/ha	300	[empty]	100 g/ha				300			100	
CN(C(=O)n1cnc(S(=O)(=O)C(F)F)n1)c1ccccc1 [Example 27]	300 g/ha			[empty]	300 g/ha	[empty]	100	30 g/ha		300 g/ha	300 g/ha				300			300	
C=CCN(C)C(=O)n1cnc(S(=O)(=O)C(F)(F)Br)n1 [Example 41]	[empty]			[empty]	[empty]	[empty]	300	[empty]	30	[empty]	100 g/ha							300	
C#CCN(C)C(=O)n1cnc(S(=O)(=O)C(F)(F)C(F)(F)Br)n1 [Example 78]	100 g/ha			30 g/ha	[empty]	[empty]		[empty]		100 g/ha	30 g/ha								300
CN(C)C(=O)n1cnc(S(=O)(=O)C(F)(F)C(F)(F)Br)n1 [Example 73]	300 g/ha		300	100 g/ha	100 g/ha	300 g/ha	100	[empty]	100	100 g/ha	100 g/ha		300	300					
CN(Cc1ccccc1)C(=O)n1cnc(S(=O)(=O)C(F)(F)C(F)F)n1 [Example 68]	[empty]		300	300 g/ha	300 g/ha	[empty]	300	300 g/ha		[empty]	[empty]						300		300
COCCN(C)C(=O)n1cnc(S(=O)(=O)C(F)(F)C(F)F)n1 [Example 64]	300 g/ha	300	100	100 g/ha	300 g/ha	100 g/ha	100	100 g/ha	100	10 g/ha	30 g/ha	300				300	300	300	
CON(C)C(=O)n1cnc(S(=O)(=O)C(F)(F)Br)n1 [Example 45]	[empty]		300	300 g/ha	[empty]	300 g/ha		100 g/ha		[empty]	[empty]				300				
